Measured values taken from PubChem BioAssay AID434987 (Southern Research Specialized Biocontainment Screening …, 2010).
Active and inactive are the calls of the source. No rule for the calls is given here.

System: M. tuberculosis H37Rv growth inhibition with meropenem
Test: dose response, H37Rv, with and without meropenem (AID 434987);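 also: growth over 7 days at 37 °C before Alamar Blue read on day 9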
[1] = M. tuberculosis H37Rv growth inhibition, measured here: IC50 without meropenem
[2] = M. tuberculosis H37Rv growth inhibition, measured here: IC90 without meropenem
[3] = measured here: IC90 with meropenem

Row | SMILES | IC50 | IC50 [1] [µM] | IC90 [2] [µM] | IC90 [3] [µM]
1 | O=C(COc1ccccc1)Nc1cc(C(F)(F)F)ccc1N1CCCC1 | 46.6 µM (inactive) | > 100 | > 100 | > 100
2 | Cc1cccc(NC(=O)c2nc[nH]c2C(=O)N[C@@H](CC(C)C)C(=O)OCc2ccccc2)c1 | 9.43 µM | 26.1 | 51.8 | > 100
3 | O=C(CC1SC(=O)NC1=O)Oc1ccc(/C=N/NC(=O)c2ccccc2O)cc1 (configuration not stated) | 6.41 µM | 41.3 | > 100 | > 100
4 | Cc1ccc(C(=O)c2oc3ccccc3c2NC(=O)c2cc(-c3cc(C)ccc3O)n[nH]2)cc1 | > 100 µM (inactive) | > 100 | > 100 | > 100
5 | Cc1ccc(CN2C(=O)N/C(=C\c3ccc(-c4ccc(C(=O)O)cc4C)o3)C2=O)cc1 | 5.14 µM | 23.8 | > 100 | 14.7
6 | O=C(Nc1ccc(N2CCCCC2)cc1)c1cc([N+](=O)[O-])cc([N+](=O)[O-])c1 | 43.9 µM (inactive) | > 100 | > 100 | > 100
7 | CCOC(=O)C1CCN(C(=O)c2sc3nc(C)nc(N4CCC(C)CC4)c3c2C)CC1 | 69.5 µM (inactive) | 76.5 | > 100 | > 100
8 | CC(C)Oc1ccc(N2CC(C(=O)Nc3ccccc3F)CC2=O)cc1 (configuration not stated) | 56.8 µM (inactive) | > 100 | > 100 | > 100
9 | CCOC(=O)c1c(C)[nH]c(N=Nc2ccccc2Cl)c1C | 32.4 µM (inactive) | 63.1 | > 100 | > 100
10 | Clc1ccc(-c2csc3ncnc(N4CCc5ccccc5C4)c23)cc1 | 95.4 µM (inactive) | > 100 | > 100 | > 100
11 | O=S(=O)(Nc1ccccc1)c1ccc2c(c1)CCO2 | > 100 µM (inactive) | > 100 | > 100 | > 100
12 | COc1ccc(/C=C/C(=O)NCC(=O)N/N=C/c2cc(Br)ccc2OCc2ccccc2)cc1 | > 100 µM (inactive) | > 100 | > 100 | > 100
13 | COc1cccc(/C=N/NC(=O)CSCC(=O)Nc2ccccc2)c1O | 5.41 µM | > 100 | > 100 | > 100
14 | CCn1nnnc1SCC(=O)c1ccc(C)cc1C | > 100 µM (inactive) | > 100 | > 100 | > 100
15 | Cc1ccc(/C=C2/SC(=S)N(CC(=O)Nc3ncc(Cc4ccc(C)cc4)s3)C2=O)cc1 | > 100 µM (inactive) | > 100 | > 100 | > 100
16 | COc1ccc(OC)c(Nc2nc(-c3cccs3)cs2)c1 | 42.8 µM (inactive) | 49 | > 100 | > 100
17 | O=C(CSc1ncn[nH]1)Nc1cccc2ccccc12 | 29.6 µM (inactive) | 50.7 | > 100 | 65
18 | CCOC(=O)COc1ccc2nsnc2c1 | 23.5 µM (inactive) | 27 | > 100 | 26
19 | CCOC(=O)Cc1nc2ccccc2[nH]1 | 15.3 µM | 49.6 | > 100 | > 100
20 | O=C(NCc1ccc2c(c1)OCO2)C(=O)NC1CCCCC1 | > 100 µM (inactive) | > 100 | > 100 | > 100

Row | SMILES | IC50 | IC50 [1] [µM] | IC90 [2] [µM] | IC90 [3] [µM]
21 | O=C(CCCCCN1C(=O)c2cccc([N+](=O)[O-])c2C1=O)Nc1ccccc1F | 10.2 µM | > 100 | > 100 | 44.1
22 | O=C(NNC(=O)c1cc(OCC(F)(F)F)ccc1OCC(F)(F)F)c1cccc(C(F)(F)F)c1 | > 100 µM (inactive) | > 100 | > 100 | > 100
23 | Cc1cc(N2CCCCCC2)nc(-c2ccccc2O)n1 | 67.2 µM (inactive) | 91.3 | > 100 | > 100
24 | C/C(=N/NC(=O)c1ccc(Cl)s1)c1ccc(NC(=O)COc2ccc(Cl)cc2)cc1 | > 100 µM (inactive) | > 100 | > 100 | > 100
25 | O=C(Nc1cccc(Cl)c1N1CCOCC1)c1ccc([N+](=O)[O-])o1 | 0.909 µM | 11 | > 100 | 38.2
26 | CCOc1ccc2c(c1)c(C(C)=O)c(C)n2-c1ccccc1 | < 0.2 µM | > 100 | > 100 | 1.96
27 | CC1CCN(CCOc2ccc(OCc3ccccc3)cc2)CC1 | 74 µM (inactive) | 98.4 | > 100 | > 100
28 | Cc1ccc(C)c(NC(=O)C2Cc3ccccc3CN2C(=O)OCc2ccccc2)c1 (configuration not stated) | 71.3 µM (inactive) | 91.3 | > 100 | > 100
29 | CCOC(=O)C1CCCN(c2ccc(NC(=O)c3snc4c(=O)[nH]cnc34)cc2)C1 (configuration not stated) | 12.7 µM | 59.4 | > 100 | > 100
30 | CN1C(=O)/C(=C/c2ccc(C(=O)NC3CCCC3)cc2)Oc2ccccc21 | > 100 µM (inactive) | > 100 | > 100 | > 100
31 | CSc1ccccc1C(=O)Nc1cccc([N+](=O)[O-])c1C | > 100 µM (inactive) | > 100 | > 100 | > 100
32 | CCc1ccc(NC(=S)Nc2ccc3cn[nH]c3c2)cc1 | 23.9 µM | > 100 | > 100 | > 100
33 | N#Cc1ccccc1/C=N/Nc1nc(-c2ccccc2)c2cc(Br)ccc2n1 | > 100 µM (inactive) | > 100 | > 100 | > 100
34 | CCCCCNCc1cccc(Br)c1 | 48.5 µM (inactive) | > 100 | > 100 | > 100
35 | Cc1nn(C)c(C)c1C1C(C#N)=C(N)OC2=C1C(=O)CCC2 (configuration not stated) | > 100 µM (inactive) | > 100 | > 100 | > 100
36 | CN(c1ccc(OCC(=O)Nc2ccc3[nH]c(=O)[nH]c3c2)cc1)S(=O)(=O)c1ccc(Cl)cc1 | > 100 µM (inactive) | > 100 | > 100 | > 100
37 | Brc1ccc(CNc2ccc3ncccc3c2)cc1 | > 100 µM (inactive) | > 100 | > 100 | > 100
38 | O=C(CCSc1ccccc1)Nc1nc2c(s1)CCCC2 | > 100 µM (inactive) | > 100 | > 100 | > 100
39 | CCOC(=O)c1cnc2cc(-c3ccc(C(C)(C)C)cc3)nn2c1N | 0.899 µM | 12.1 | > 100 | 5.74
40 | COc1cc(OC)cc(-c2c(C#Cc3ccsc3)c3cc(-c4ccc(OC)nc4)ccc3n2C)c1 | > 100 µM (inactive) | > 100 | > 100 | > 100

Row | SMILES | IC50 | IC50 [1] [µM] | IC90 [2] [µM] | IC90 [3] [µM]
41 | Cc1cc(C)cc(NC(=O)c2cc(Cl)sc2Cl)c1 | 4.84 µM | > 100 | > 100 | 7.73
42 | CN1C/C(=N\S(=O)(=O)c2ccccc2)N(C)C1=O | 13 µM (inactive) | 23.6 | 46.7 | 33.7
43 | Cc1c(C=O)c(C=O)c(C)n1Cc1ccccc1 | 31.9 µM (inactive) | 52 | > 100 | 69.3
44 | CC(C)(C)OC(=O)N1CCC(NC(=O)c2[nH]cnc2C(=O)Nc2ccccc2)CC1 | > 100 µM (inactive) | > 100 | > 100 | > 100
45 | Cc1c(NC(=O)c2noc3c2CCc2ccccc2-3)c(=O)n(-c2ccccc2)n1C | 28.3 µM | > 100 | > 100 | > 50
46 | S=c1[nH]cnc2scc(-c3ccc(Br)cc3)c12 | 28.8 µM | 98.8 | > 100 | > 100
47 | O=C(O)Cc1csc(Nc2cccc(Cl)c2)n1 | > 100 µM (inactive) | > 100 | > 100 | > 100
48 | CCOC(=O)c1nc(N2CCN(C(=O)OCC)CC2)c2c3c(sc2n1)CCCC3 | 39.5 µM (inactive) | 60.6 | 96.6 | 40.9
49 | COc1ccc(NC(=O)CSc2nc(N)c(C(=O)Nc3ccc(N(C)C)cc3)s2)cc1 | 22.8 µM | > 100 | > 100 | > 100
50 | O=C(CCSc1ccc(Cl)c(Cl)c1)NC12CC3CC(CC(C3)C1)C2 | 11.6 µM | 66.3 | > 100 | 12.3
51 | CCC(CC)C(=O)Nc1ccc(Sc2ccc([N+](=O)[O-])cc2)cc1 | > 100 µM (inactive) | > 100 | > 100 | > 100
52 | O=C(CSc1nnc(-c2ccncc2)o1)c1cccc([N+](=O)[O-])c1 | 31.6 µM (inactive) | 46.9 | > 100 | 45.4
53 | COc1ccc(-c2csc(NC(CO)c3nc4ccccc4n3Cc3ccc(C)cc3)n2)cc1 (configuration not stated) | 25 µM (inactive) | 48.4 | 57.2 | 26.4
54 | CCOc1ccccc1C(=O)Nc1cccc(-c2ccc3nncn3n2)c1 | 65.3 µM (inactive) | > 100 | > 100 | > 100
55 | O=C(CCSc1nnc(-c2ccncc2)o1)Nc1ccccc1Cl | > 100 µM (inactive) | > 100 | > 100 | > 100
56 | Nc1n[nH]c(N)c1N=Nc1cccc(F)c1 | > 100 µM (inactive) | > 100 | > 100 | > 100
57 | CCOC(=O)c1c(NC(=S)NC(=O)c2ccc(Cn3cc(Cl)cn3)o2)sc2c1CCC(C)C2 (configuration not stated) | > 100 µM (inactive) | > 100 | > 100 | > 100
58 | CC(/C=C(\NC(=O)c1ccccc1)C(=O)N=Nc1c(O)[nH]c2ccc(C)cc12)=C\c1ccccc1 | > 100 µM (inactive) | > 100 | > 100 | > 100
